# “And” between values parts separate entries of the source, which are not always exact repeats. Equal entries are not always repeated. Where two headings read alike, the source gives them in different places.
# Assays:
# [1] = Distribution diagram of Ca^2+-MNZ system vs pH; type: physicochemical; details: I = 0.15 mol L^-1, CL = 2 mmol L^-1, CCa = 1 mmol L^-1, 4 ≤ pH ≤ 10
# Experimental: (§1) The protonation constant of MNZ (L), formation constant values of Ca^2+(M)-MNZ (L), and titration parameters (analytical concentration of the reagents, standard potential E^0, junction potential) were determined by using BSTAC and STACO programs. LIANA program has provided the parameters characterizing the dependence of the protonation and formation constant values on the temperature and ionic strength. More details on software are present in ref. [59]. ^1H NMR data were processed by HypNMR software, which allows for calculating protonation and formation constant values and the individual chemical shift of species through the observed signals and assuming fast mutual exchange in the NMR time scale. UV-Vis data are processed by the HypSpec program, which allows refining of the protonation and formation constant as well as the molar absorption coefficient values (ε) of the species. The speciation diagrams and the formation percentage of the species are determined by the Hyss program.
# [2] = Dependence of Ca^2+-MNZ formation constant on temperature (van't Hoff equation), thermodynamic parameters; type: physicochemical; details: Ca + LH = CaLH; t = 298.15 K, I = 0.15 mol L^-1 NaCl
# Experimental: The protonation and formation constants values acquired at the three different temperatures of 15, 25, and 37 °C, listed in Table 1, were used to study their dependence on temperature, as already shown for several systems. The data obtained by the potentiometric measurements were analyzed using the following van’t Hoff equation:logβT = logβθ + ΔH^0(1/θ − 1/T) R ln 10(6) where logβT is the stability constant at a certain temperature (expressed in kelvin), while logβθ is the stability constant at t = 298.15 K, and R is the universal gas constant expressed as 8.314 J K^−1 mol^−1. Using the equation just reported, it was possible to calculate the protonation and formation enthalpies change values, together with Gibbs free energy and entropy changes.
# as §1
# [3] = UV-Vis spectrophotometric titrations: protonation constants of MNZ; type: physicochemical; details: t = 25 °C; for logβ UV: I = 0.15 mol L^-1
# Experimental: (§2) As widely reported in the literature, the high ability of L to absorb in the UV range has often been used to determine quantitatively and qualitatively this antibiotic in waters. Various spectrophotometric titrations on solutions containing L and M-L mixtures were performed to investigate L spectral behavior and to confirm the protonation and formation constants values as well as the speciation model obtained by potentiometry, as already shown with other systems.
# (§3) The spectrophotometric titrations were performed with a Varian Cary 50 UV-Vis spectrophotometer characterized by an optical fiber with a fixed 1 cm path length. The system was interfaced to a PC by the Varian Cary WinUV software. For all titrations, a Thermo-Fisher glass electrode was also used to record simultaneously the couple of data absorbance (A) and e.m.f. (mV) vs. volume of titrant (mL), for each titration point. The analyses were carried out in a thermostated cell, in which N2 was bubbled in solution to avoid CO2 and O2.
# as §1
# [4] = Distribution diagram of MNZ species vs pH; type: physicochemical; details: t = 25 °C, I = 0.15 mol L^-1, CL = 2 mmol L^-1, 4 ≤ pH ≤ 10
# Experimental: as §1
# [5] = UV-Vis spectrophotometric titrations: formation constant of Ca^2+-MNZ species; type: physicochemical; details: Ca + L + H = CaLH; t = 25 °C, I = 0.15 mol L^-1
# Experimental: as §2, §3
# The protonation constant of MNZ (L), formation constant values of Ca^2+(M)-MNZ (L), and titration parameters (analytical concentration of the reagents, standard potential E^0, junction potential) were determined by using BSTAC and STACO programs. […] The speciation diagrams and the formation percentage of the species are determined by the Hyss program.
# [6] = Potentiometric titrations: formation constant of Ca^2+-MNZ species (CaLH) in NaCl; type: physicochemical; details: for logK^CaLH: Ca + LH = CaLH
# Experimental: To investigate the interaction between MNZ and Ca^2+, various potentiometric titrations were also performed on solutions containing different metal/ligand ratios. The reactions related to formation constants are indicated below, where the charges are omitted for simplicity and MNZ was indicated as L:Ca + L + rH = MLHr β^MLH^r(3) Ca + LHr = MLHr K^MLH^r(4)
# Hydrolysis constant values of Ca^2+ species at various temperatures and ionic strength in NaCl, taken into account in the calculations relating to the M-L system, are reported in Supplementary Material. The most accurate speciation model is chosen by evaluating several factors, which are the statistical parameters standard and mean deviation, the formation percentages of the considered species, and the simplicity of the model. Based on potentiometric results, several computational tests were carried out considering different speciation models.
# The potentiometric titrations were employed by Metrohm-Titrando 809 automated potentiometer with a combined glass electrode ORION, type Ross 8102SC and a Metrohm Dosino 800 automatic dispenser. The titrations were performed in cells with a capacity of 25 mL, characterized by a double wall inside which thermostated water circulates. The cells were connected to a thermostat model D1-G Haake. During the measurements, pure N2 was bubbled to avoid CO2 and O2 in solution. The system is interfaced to a PC through the Metrohm TIAMO 2.0 software, which automatically acquires the mL/mV pairs. It can control several parameters, such as e.m.f. stability, titrant delivery, and data acquisition. Estimated accuracy of this apparatus is ±0.15 mV and ±0.002 mL for e.m.f. and for readings of titrant volume. The acid-base titrations were carried out first on 25 mL solutions containing L, HCl, and NaCl as supporting electrolytes at different temperatures and ionic strength conditions. […] The solutions were titrated using standard NaOH solution. A calibration was associated with each measurement by titration with NaOH of a solution containing HCl, NaCl, and H2O, in order to calculate the standard electrode potential (E^0) and the pKw values.
# as §1
# [7] = design: method as in earlier work; details: t = 25 °C, I = 0.5 mol L^-1 in KCl, potentiometry; cited from earlier work
smiles,measurement,setting,value
"Cc1ncc([N+](=O)[O-])n1CCO [MNZ, 2-Methyl-5-nitroimidazole-1-ethanol]",maximum metal fraction of CaLH species,[1]; t = 25 °C,0.4
same,maximum metal fraction of CaLH species,[1]; t = 37 °C,over 0.1
same,TΔS,[2],-20 kJ/mol
same,ΔG,[2],-14.2 kJ/mol
same,ΔH,[2],-34 kJ mol^-1 and −34(8) kJ mol^-1
same,logβ UV,[3]; L + 2H = LH2,14.20(6)
same,logβ UV,[3]; L + H = LH,11.73(2) ^1
same,logK2 (protonation constant),"[3]; UV spectrophotometry, I = 0.15 mol L^-1 in NaCl",2.47
same,maximum ligand fraction of the mono-protonated species,[4],over 0.9
same,logβ UV,[5],14.17(2)
same,logβ^CaLH,"[6]; Ca + L + H = CaLH, t = 15 °C, I = 0.16 mol L^-1 NaCl","14.06(11) ^4, 5"
same,logβ average value,"[6]; Ca + L + H = CaLH, t = 25 °C, I = 0.15 mol L^-1, average of UV, potentiometry",14.16(7)
same,logβ^CaLH,"[6]; Ca + L + H = CaLH, t = 25 °C, I = 0.5 mol L^-1 NaCl",15.00(2)
same,logβ^CaLH,"[6]; Ca + L + H = CaLH, t = 25 °C, I = 0.98 mol L^-1 NaCl",14.60(5) ^6
same,logβ^CaLH,"[6]; Ca + L + H = CaLH, t = 37 °C, I = 0.15 mol L^-1 NaCl",13.56(8) ^7
same,logK^CaLH,"[6]; t = 15 °C, I = 0.16 mol L^-1 NaCl",2.06 ^5
same,logK^CaLH,"[6]; t = 25 °C, I = 0.16 mol L^-1 NaCl (text: 0.15)",2.49 ^5
same,logK^CaLH,"[6]; t = 25 °C, I = 0.5 mol L^-1 NaCl",2.49
same,logK^CaLH,"[6]; t = 25 °C, I = 0.98 mol L^-1 NaCl",2.38 ^6
same,logK^CaLH,"[6]; t = 37 °C, I = 0.15 mol L^-1 NaCl",1.68 and 1.68 ^7
same,logK2 (protonation constant),[7],2.68

# Source: article PMC9457533, “Study on Metronidazole Acid-Base Behavior and Speciation with Ca^2+ for Potential Applications in Natural Waters” (Molecules, 2022)
